System: MC38 tumor model
Test: MC38 tumor model (fibrosis)
Format: in vivo
Details: no dose or method printed

## CCCn1c(=O)c2c(nc(-c3cnn(Cc4cccc(C(F)(F)F)c4)c3)n2C(C)=O)n(CC)c1=O [Compound 1, 7-acetyl-3-ethyl-1-propyl-8-(1-(3-(trifluoromethyl)benzyl)-1H-pyrazol-4-yl)-3,7-dihydro-1H-purine-2,6-dione]
  fibrosis in a MC38 tumor model: reduces fibrosis
